Assay [1] concerns the target T1, Telomerase reverse transcriptase (Homo sapiens, UniProt O14746). As to the kind of experiment: Non-competitive inhibition of telomerase (unknown origin) assessed as decrease in Km at 1 uM using […] by Michaelis-Menten analysis relative to control. Conditions: COLO 205.
Assay [2] addresses Carbonic anhydrase 5B, mitochondrial (Homo sapiens, UniProt Q9Y2D0). As to the kind of experiment: Inhibition of human carbonic anhydrase 5B by stopped-flow CO2 hydration assay.
The next assay concerns the target Carbonic anhydrase 9 (Homo sapiens, UniProt Q16790). As to the kind of experiment: Inhibition of human carbonic anhydrase 9 by stopped-flow CO2 hydration assay.
In assay [3] the target is T1, Telomerase reverse transcriptase. As to the kind of experiment: Inhibition of telomerase in human COLO 205 cells by TRAP assay. It is filed as cell-based.
For assay [4] the target is unchanged. As to the kind of experiment: Inhibition of telomerase in human HT-29 cells by TRAP assay. It is filed as cell-based.
The target is the same in assay [5]. As to the kind of experiment: Inhibition of telomerase in human HCT-116 cells after 72 hrs by TRAP gel electrophoresis. Type of assay: cell-based.
For assay [6], the system named is COLO 205. As to the kind of experiment: Effect on hTERT mRNA expression in human COLO 205 cells measured after 72 hrs by qRT-PCR analysis. It is filed as functional, cell-based. Background: In qPCR the cycle at which signal appears reflects the starting amount.
Assay [7] concerns COLO 205. As to the kind of experiment: Effect on TERC mRNA expression in human COLO 205 cells measured after 72 hrs by qRT-PCR analysis. It is filed as functional, cell-based.
Assay [8] has as its target T1, Telomerase reverse transcriptase. As to the kind of experiment: Inhibition of telomerase in human COLO 205 cells assessed as shortening of telomere length at 30 uM by measured after 56 days qPCR relative to control. Type of assay: cell-based. Particulars: time 56.0 day.
Assay [9] deals with COLO 205. As to the kind of experiment: Induction of apoptosis in human COLO 205 cells assessed as early apoptotic cells incubated for 44 days by Annexin V/FITC and PI staining based flow cytometry analysis (reference value: 4.59 %). Type of assay: functional. Particulars: time 44 day. Background: A flow cytometer gives signals particle by particle.
Assay [10] deals with COLO 205. As to the kind of experiment: Induction of apoptosis in human COLO 205 cells assessed as necrotic cells incubated for 44 days by Annexin V/FITC and PI staining based flow cytometry analysis (reference value: 0.1 %). It is filed as functional. Particulars: time 44 day.
Assay [11] concerns COLO 205. As to the kind of experiment: Induction of apoptosis in human COLO 205 cells assessed as necrotic cells incubated for 56 days by Annexin V/FITC and PI staining based flow cytometry analysis (reference value: 0.2 %). It is filed as functional. Particulars: time 56 day.
For assay [12], the system named is COLO 205. As to the kind of experiment: Antitumor activity against human COLO 205 cells xenografted in BALB/c nude mouse assessed as tumor growth inhibition at 50 mg/kg, sc administered as single dose measured after 5 days relative to control. It is filed as functional. Particulars: COLO 205, sc, 120 h, time 5 day, read-out: TGI. On the technique in general: A xenograft is tissue or cells of one species grown in another, often human tumour cells in immunodeficient mice.

The subject of assay [13] is COLO 205. As to the kind of experiment: Cell cycle arrest in human COLO 205 cells assessed as accumulation at S phase at 30 uM incubated for 44 days by propidium iodide staining based flow cytometry analysis (reference value: 2.25 %). Type of assay: functional. Particulars: time 44 day.
Assay [14] concerns COLO 205. As to the kind of experiment: Cell cycle arrest in human COLO 205 cells assessed as accumulation at G0/G1 phase incubated for 24 hrs by propidium iodide staining based flow cytometry analysis (reference value: 58.82 %). Type of assay: functional.
In assay [15] the test system is COLO 205. As to the kind of experiment: Induction of apoptosis in human COLO 205 cells assessed as early apoptotic cells incubated for 12 hrs by Annexin V/FITC and PI staining based flow cytometry analysis (reference value: 14.75 %). Type of assay: functional.
The subject of assay [16] is COLO 205. As to the kind of experiment: Induction of apoptosis in human COLO 205 cells assessed as late apoptotic cells incubated for 12 hrs by Annexin V/FITC and PI staining based flow cytometry analysis (reference value: 13.48 %). Type of assay: functional.
Assay [17] concerns COLO 205. As to the kind of experiment: Antitumor activity against human COLO 205 cells xenografted in BALB/c nude mouse assessed as change in tumor volume at 50 mg/kg, sc administered as single dose measured after 5 days (reference value: 270.1 +/- 52.1 mm3). It is filed as functional. Conditions: time 5 day.
Assay [18] concerns COLO 205. As to the kind of experiment: Antitumor activity against human COLO 205 cells xenografted in BALB/c nude mouse assessed as tumor growth inhibition at 50 mg/kg, sc administered as single dose measured after 3 days relative to control. Conditions: COLO 205, sc, 72 h, time 3 day, read-out: TGI. Type of assay: functional.
The subject of the next assay is COLO. As to the kind of experiment: In vivo inhibition of telomerase in BALB/c mouse xenografted with human COLO 205 cells assessed as reduction in telomere length at 50 mg/kg, sc. Type of assay: functional, organism-based.

Activity calls are given as the source filed them. The rule behind the calls is not given here.

T1 sequence (O14746 whole entry): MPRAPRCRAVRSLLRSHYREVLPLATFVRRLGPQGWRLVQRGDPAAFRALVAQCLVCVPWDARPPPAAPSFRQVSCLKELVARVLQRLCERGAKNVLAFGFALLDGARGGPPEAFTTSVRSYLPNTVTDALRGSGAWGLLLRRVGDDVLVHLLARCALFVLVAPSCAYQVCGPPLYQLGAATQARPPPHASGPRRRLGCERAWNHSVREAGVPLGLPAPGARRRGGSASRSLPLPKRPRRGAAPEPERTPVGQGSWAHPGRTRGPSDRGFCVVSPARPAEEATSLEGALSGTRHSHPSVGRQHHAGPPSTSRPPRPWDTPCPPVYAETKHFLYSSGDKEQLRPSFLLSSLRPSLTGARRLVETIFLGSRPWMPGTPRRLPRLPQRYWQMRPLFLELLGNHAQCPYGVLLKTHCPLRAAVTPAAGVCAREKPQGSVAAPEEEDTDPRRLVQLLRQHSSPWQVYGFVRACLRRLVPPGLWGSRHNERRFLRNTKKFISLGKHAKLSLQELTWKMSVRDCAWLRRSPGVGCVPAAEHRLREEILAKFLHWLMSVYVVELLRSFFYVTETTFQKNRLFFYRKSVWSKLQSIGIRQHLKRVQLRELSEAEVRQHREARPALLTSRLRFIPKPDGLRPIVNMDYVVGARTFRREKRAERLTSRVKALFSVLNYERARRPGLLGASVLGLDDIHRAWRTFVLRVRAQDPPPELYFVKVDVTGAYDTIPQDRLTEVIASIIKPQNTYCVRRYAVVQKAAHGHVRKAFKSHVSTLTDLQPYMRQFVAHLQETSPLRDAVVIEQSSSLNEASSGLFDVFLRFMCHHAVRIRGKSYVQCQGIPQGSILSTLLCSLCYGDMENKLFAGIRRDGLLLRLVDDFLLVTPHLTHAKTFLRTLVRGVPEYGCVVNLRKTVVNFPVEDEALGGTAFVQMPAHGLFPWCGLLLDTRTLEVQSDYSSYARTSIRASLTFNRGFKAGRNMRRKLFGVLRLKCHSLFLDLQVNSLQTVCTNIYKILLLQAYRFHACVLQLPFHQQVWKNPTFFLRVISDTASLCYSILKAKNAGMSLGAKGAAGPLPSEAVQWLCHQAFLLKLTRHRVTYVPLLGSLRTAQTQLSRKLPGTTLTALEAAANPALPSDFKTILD
Carbonic anhydrase 5B, mitochondrial, sequence (Q9Y2D0 whole entry): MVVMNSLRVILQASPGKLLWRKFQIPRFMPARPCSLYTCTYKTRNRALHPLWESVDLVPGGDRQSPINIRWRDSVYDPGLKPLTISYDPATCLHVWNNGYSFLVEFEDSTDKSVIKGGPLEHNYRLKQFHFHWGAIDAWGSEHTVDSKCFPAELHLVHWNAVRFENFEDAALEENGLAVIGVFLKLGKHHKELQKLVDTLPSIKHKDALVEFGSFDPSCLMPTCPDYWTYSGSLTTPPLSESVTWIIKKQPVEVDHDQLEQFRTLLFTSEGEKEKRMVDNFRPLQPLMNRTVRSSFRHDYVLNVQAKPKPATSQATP

As usually defined, the Ki is a dissociation constant, usually derived from enzyme kinetics or from competition with a known ligand. Read a high Ki as lower affinity. A word on the IC50: it is the point on the concentration scale where inhibition reaches its midpoint. Read a low IC50 as greater potency in that assay. Usually IC90 stands for the point of the concentration-response curve where the effect stands at 90%. As usually defined, the inhibition is the percentage by which the read-out fell short of the control. Consider `Cc1cn([C@H]2C[C@@H](n3cc(COC(=O)c4ccc(S(N)(=O)=O)cc4)nn3)[C@@H](CO)O2)c(=O)[nH]c1=O`, for which, in assay [1], the fold change (FC) was determined as 2.3. Moreover, the inhibitory constant (Ki) in assay [2] was determined as 0.0542 µM; at Carbonic anhydrase 9, 0.0037 µM. Further, the values for the IC50 in assay [3] and in assay [4] were 5.9 µM and 9.5 µM, respectively. In addition, the figures for the IC90 in [3] and in assay [4] were 29.1 µM and 35.7 µM, respectively. In addition, the inhibition entry was “Dose-Dependent Effect” in assay [5] and 4.5% in assay [8]. For the same molecule, the outcome in the assay on COLO 205 [6] and in the assay on COLO 205 [7] was inactive. The Activity in the assay with COLO 205 [9] turned out to be 10.54%; with COLO 205 [10], 0.17%; in the assay on COLO 205 [11] it was 0.94%; in the assay on COLO 205 [13] it was 0.59%; in the assay on COLO 205 [14], 77.29%; with COLO 205 [15] it was 8.27%. Also, the Activity is listed as 6.8% in the assay on COLO 205 [16] and 181.4 mm3 in the assay on COLO 205 [17]. In the assay with COLO 205 [12], the inhibition in vivo at 50 mg/kg is 33%.
Consider `Cc1cn([C@H]2C[C@@H](n3cc(CNC(=O)Nc4cccc(S(N)(=O)=O)c4)nn3)[C@@H](CO)O2)c(=O)[nH]c1=O`, for which the fold change (FC) in assay [1] worked out at 3.4. The Ki in assay [2] was 0.0478 µM; at Carbonic anhydrase 9 it was > 10 µM. The values for the IC50 in [3] and in assay [4] were 0.9 µM and 2.2 µM, respectively. For the same molecule, the IC90 in [3] is 9.1 µM; in assay [4] it was 22.1 µM. Besides, the values for the inhibition result in [5] and in [8] were “Dose-Dependent Effect” and 4.5%, respectively. Further, the outcome in the assay with COLO 205 [6] and in the assay on COLO 205 [7] was inactive. Moreover, the Activity was determined as 13.48% with COLO 205 [9]; 0.52% in the assay with COLO 205 [10]; 1.47% in the assay with COLO 205 [11]; 0.56% with COLO 205 [13]; 79.38% in the assay on COLO 205 [14]; 12.33% in the assay with COLO 205 [15]. The Activity in the assay on COLO 205 [16] was found to be 6.23%. Besides, the inhibition in vivo at 50 mg/kg in the assay with COLO 205 [18] turned out to be 32.1%. In the assay with COLO, the inhibition entry was “Active”.

These data come from ChEMBL document CHEMBL5030523, “Mechanisms of the Antiproliferative and Antitumor Activity of Novel Telomerase-Carbonic Anhydrase Dual-Hybrid Inhibitors” (J Med Chem, 2021).
